Test results as given in patent US20240158393A1, “PYRIDONE COMPOUNDS AND METHODS OF USE” (Exelixis, Inc., priority 2021, published 2024).
pIC50: −log10 of the molar value.

How the values were obtained:
Assay type in all cases: biochemical
Human Mer = target: T1, Human Mer (Homo sapiens, UniProt Q12866); experiment: Human Mer kinase assay (33P radiometric / HTRF KinEase); conditions: protocols of Examples C-1 and/or C-2
T1 construct: Human Mer (residues R557-E882 with H628Q and R794A, 0.7 nM); purchased Eurofins Pharma Discovery Services UK Limited (KinaseProfiler service)
T1 sequence (Q12866 557-882 limits assumed): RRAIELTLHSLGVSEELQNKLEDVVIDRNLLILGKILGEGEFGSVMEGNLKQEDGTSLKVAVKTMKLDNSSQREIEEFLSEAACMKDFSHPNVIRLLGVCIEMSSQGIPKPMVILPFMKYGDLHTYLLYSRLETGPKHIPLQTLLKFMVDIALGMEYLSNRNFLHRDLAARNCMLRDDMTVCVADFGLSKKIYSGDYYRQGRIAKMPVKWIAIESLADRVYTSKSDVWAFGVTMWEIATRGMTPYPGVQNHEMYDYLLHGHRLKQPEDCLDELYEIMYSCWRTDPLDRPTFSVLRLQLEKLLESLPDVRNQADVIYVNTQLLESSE
Procedure: (§1) Kinase activity and compound inhibition were investigated using the ^33P-Phosphoryl transfer radiometric kinase assay, performed using the KinaseProfiler™ service of Eurofins Pharma Discovery Services UK Limited. Dose-response experiments were performed using nine compound concentrations in a 96-well microtiter plate. For each assay, all compounds were prepared to a 50× final assay concentration (50 μM) in 100% DMSO, then diluted in a half-log series, with the final top concentration at 1 μM. This working stock of the compound was added to the assay well as the first component in the reaction, followed by the remaining components as detailed in the following assay protocols below. The positive control wells (100% kinase activity) contain all components of the reaction including 2% DMSO (control for solvent effects), except the compound of interest. Blank wells contain all components of the reaction, with the reference inhibitor, staurosporine. This reference compound was used to abolish kinase activity and generated the 0% kinase activity base-line. IC50 values were calculated by nonlinear regression analysis using the sigmoidal dose-response (variable slope) curve fit on XLFit version 5.3 (ID Business Solutions).
(§2) Kinase activity and compound inhibition were also investigated using the HTRF® KinEase assay (Cisbio Cat #62TKOPEB) per manufacturer's instructions. In short, compounds were delivered in 300 nL volumes at 10 different concentrations in DMSO (3% final) to empty 384-well assay plates (Corning cat #3824). A mixture of enzyme, 1 μM biotinylated peptide substrate, and buffer in 10 μL volume was added. The assay was started upon the addition of ATP (at Km). The 10 μL reaction was incubated at room temperature. The reaction was stopped upon the addition of detection buffer containing streptavidin-XL665 (5 μL) and TK antibody-Eu3+(5 μL). After a 60 min incubation at room temperature, the fluorescence at 665 nm and 620 nm was read on an Envision microplate reader (Perkin Elmer).
(§3) Kinase activity normalized to DMSO (100% activity) and reference compound at 1 μM and (0% activity) was calculated using the fluorescence ratio […]. IC50 values were calculated by nonlinear regression analysis using a 4-parameter logistic curve fit in ActivityBase XE (IDBS).
(§4) Example C-1: Human Mer (residues R557-E882 with H628Q and R794A, 0.7 nM) was incubated with 8 mM MOPS pH 7.0, 0.2 mM EDTA, 30 mM NaCl, 250 μM GGMEDIYFEFMGGKKK (SEQ ID NO: 2), 10 mM magnesium acetate, and 10 μM [γ-^33P-ATP]. The reaction was initiated by the addition of the Mg/ATP mix. After incubation for 40 minutes at room temperature, the reaction was stopped by the addition of phosphoric acid to a concentration of 0.5%. A reaction aliquot of 10 μL was then spotted onto a P30 filtermat and washed four times for 4 minutes in 0.425% phosphoric acid and once in methanol prior to drying and scintillation counting. Incorporated ^33P was measured using the Wallac Microbeta scintillation counter (Perkin Elmer).
Example C-2: Human MER (residues 528-999; CarnaBio, 1 ng/well) was also incubated with enzymatic buffer (Cisbio) supplemented with 5 mM MgCl2 and 1 mM DTT. The mixture was added to the pre-plated compounds. The reaction was initiated upon addition of ATP at Km (40 μM). The reaction was incubated at room temperature for 60 min and stopped upon the addition of SA-XL665 and TK-antibody both diluted in EDTA-containing kinase detection buffer (Cisbio). The kinase activity was calculated as stated above and the IC50 values were reported.

Human Met = target: T2, Human Met (Homo sapiens, UniProt P08581); experiment: Human Met kinase assay (33P radiometric / HTRF KinEase); conditions: protocols of Examples D-1 and/or D-2; read-out: c-Met IC50
T2 construct: Human MET (residues 956-1390)
Procedure: as §1, §2, §3
Example D-1: Human Met (residues R974-S1390 with A1209G and V1290L, 3.4 nM) was incubated with 8 mM MOPS pH 7.0, 0.2 mM EDTA, 250 μM KKKGQEEEYVFIE (SEQ ID NO:3), 1 mM sodium orthovanadate, 5 mM […], 10 mM magnesium acetate, and 10 μM [γ-^33P-ATP]. The reaction was initiated by the addition of the Mg/ATP mix. After incubation for 40 minutes at room temperature, the reaction was stopped by the addition of phosphoric acid to a concentration of 0.5%. A reaction aliquot of 10 μL was then spotted onto a P30 filtermat and washed four times for 4 minutes in 0.425% phosphoric acid and once in methanol prior to drying and scintillation counting. Incorporated ^33P was measured using the Wallac Microbeta scintillation counter (Perkin Elmer).
(§5) Example D-2: Human MET (residues 956-1390; CarnaBio, 0.1 ng/well) was also incubated with enzymatic buffer (Cisbio) supplemented with 5 mM MgCl2, 1 mM DTT and 1 mM MnCl2. The mixture was added to the pre-plated compounds. The reaction was initiated upon addition of ATP at Km (3.0 μM). The reaction was incubated at room temperature for 40 min and stopped upon the addition of SA-XL665 and TK-antibody both diluted in EDTA-containing kinase detection buffer (Cisbio). The kinase activity was calculated as stated above and the IC50 values were reported.

Human KDR = target: T3, Human KDR (Homo sapiens, UniProt P35968); experiment: Human KDR kinase assay (33P radiometric / HTRF KinEase); conditions: protocols of Examples B-1 and/or B-2
T3 construct: Human KDR (residues K790-V1356, 55 nM); purchased Eurofins Pharma Discovery Services UK Limited (KinaseProfiler, B-1) and/or CarnaBio (B-2)
Procedure: as §1, §2, §3
as §4, with “B-1:” for “C-1:”, “KDR” for “Mer”, “K790-V1356, 55” for “R557-E882 with H628Q and R794A, 0.7”, “0.33 mg/mL myelin basic protein,” for “30 mM NaCl, 250 μM GGMEDIYFEFMGGKKK (SEQ ID NO: 2),”
as §5, with “B-2:” for “D-2:”, “KDR” for “MET”, “790-1356;” for “956-1390;”, “MnCl2,” for “DTT”, “DTT.” for “MnCl2.”, “(4.0” for “(3.0”

T2 sequence (P08581 974-1390 limits assumed): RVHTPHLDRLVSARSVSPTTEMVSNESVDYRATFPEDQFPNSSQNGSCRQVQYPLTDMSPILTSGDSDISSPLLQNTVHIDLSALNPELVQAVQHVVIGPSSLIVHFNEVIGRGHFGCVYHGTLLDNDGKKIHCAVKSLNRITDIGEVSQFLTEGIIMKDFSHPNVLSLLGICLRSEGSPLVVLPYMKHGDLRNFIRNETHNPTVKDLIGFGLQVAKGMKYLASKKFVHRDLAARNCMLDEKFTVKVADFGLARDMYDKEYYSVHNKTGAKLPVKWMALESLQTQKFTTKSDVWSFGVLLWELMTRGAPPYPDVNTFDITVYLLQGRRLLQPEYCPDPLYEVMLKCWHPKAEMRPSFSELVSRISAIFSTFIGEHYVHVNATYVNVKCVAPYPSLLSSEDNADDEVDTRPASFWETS
T3 sequence (P35968 790-1356): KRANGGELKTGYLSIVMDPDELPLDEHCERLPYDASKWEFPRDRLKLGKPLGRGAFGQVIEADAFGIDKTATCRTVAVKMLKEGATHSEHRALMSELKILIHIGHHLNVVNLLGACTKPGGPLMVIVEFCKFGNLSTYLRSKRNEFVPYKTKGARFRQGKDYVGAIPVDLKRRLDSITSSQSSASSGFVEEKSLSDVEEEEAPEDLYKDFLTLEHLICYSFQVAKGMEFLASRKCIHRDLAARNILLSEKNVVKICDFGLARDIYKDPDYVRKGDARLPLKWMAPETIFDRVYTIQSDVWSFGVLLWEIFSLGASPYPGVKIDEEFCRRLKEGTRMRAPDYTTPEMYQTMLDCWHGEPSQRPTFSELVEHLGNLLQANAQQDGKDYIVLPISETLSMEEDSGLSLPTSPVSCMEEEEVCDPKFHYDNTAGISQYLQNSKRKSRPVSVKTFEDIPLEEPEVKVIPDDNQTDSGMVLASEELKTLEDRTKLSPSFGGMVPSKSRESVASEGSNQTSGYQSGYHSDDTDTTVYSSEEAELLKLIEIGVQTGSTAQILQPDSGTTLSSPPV

SMILES | pIC50 (Human Mer) | pIC50 (Human Met) | pIC50 (Human KDR)
COc1cnc2c(Oc3ccc(NC(=O)c4cnc(C)c(C5=CCCCC5)c4O)cc3F)ccnc2c1 [Compound 1-8, 5-(Cyclohexen-1-yl)-N-[3-fluoro-4-[(7-methoxy-1,5-naphthyridin-4-yl)oxy]phenyl]-4-hydroxy-6-methylpyridine-3-carboxamide] | ≥ 7.00 | ≥ 7.00 | ≥ 7.00
C=C(C)c1c(C)nc(C)c(C(=O)Nc2ccc(Oc3ccnc4cc(OC)cnc34)c(F)c2)c1O [Compound 3, N-[3-Fluoro-4-[(7-methoxy-1,5-naphthyridin-4-yl)oxy]phenyl]-4-hydroxy-2,6-dimethyl-5-prop-1-en-2-ylpyridine-3-carboxamide] | ≥ 7.00 | ≥ 7.00 | ≥ 7.00
C=C(C)c1c(C)nc(C)c(C(=O)Nc2ccc(Oc3ccnc4cc(OC)c(OC)nc34)cc2)c1O [Compound 4, N-[4-[(6,7-Dimethoxy-1,5-naphthyridin-4-yl)oxy]phenyl]-4-hydroxy-2,6-dimethyl-5-prop-1-en-2-ylpyridine-3-carboxamide] | ≥ 7.00 | ≥ 7.00 | ≥ 7.00
C=C(C)c1c(C)nc(C)c(C(=O)Nc2ccc(Oc3ccnc4cc(OC)c(OC)nc34)c(F)c2)c1O [Compound 5, N-[4-[(6,7-Dimethoxy-1,5-naphthyridin-4-yl)oxy]-3-fluorophenyl]-4-hydroxy-2,6-dimethyl-5-prop-1-en-2-ylpyridine-3-carboxamide] | ≥ 7.00 | ≥ 7.00 | ≥ 7.00
COc1cc2nccc(Oc3ccc(NC(=O)c4c(C)n(C)c(C)c(C(C)C)c4=O)cc3F)c2nc1OC [Compound 56, N-[4-[(6,7-Dimethoxy-1,5-naphthyridin-4-yl)oxy]-3-fluorophenyl]-1,2,6-trimethyl-4-oxo-5-propan-2-ylpyridine-3-carboxamide] | ≥ 7.00 | < 6.52 | < 6.52
COc1cc2nccc(Oc3ccc(NC(=O)c4c(C)n(C)c(C)c(C(C)C)c4=O)cc3)c2nc1OC [Compound 57, N-[4-[(6,7-Dimethoxy-1,5-naphthyridin-4-yl)oxy]phenyl]-1,2,6-trimethyl-4-oxo-5-propan-2-ylpyridine-3-carboxamide] | ≥ 7.00 | < 6.52 | ≥ 7.00
COc1cnc2c(Oc3ccc(NC(=O)c4c(C)nc(C)c(OC)c4O)cc3)ccnc2c1 [Compound 59, 4-Hydroxy-5-methoxy-N-[4-[(7-methoxy-1,5-naphthyridin-4-yl)oxy]phenyl]-2,6-dimethylpyridine-3-carboxamide] | ≥ 7.00 | < 6.52 | 6.52 to 7.00
COc1cnc2c(Oc3ccc(NC(=O)c4c(C)nc(C)c(OC)c4O)cc3F)ccnc2c1 [Compound 60, N-[3-Fluoro-4-[(7-methoxy-1,5-naphthyridin-4-yl)oxy]phenyl]-4-hydroxy-5-methoxy-2,6-dimethylpyridine-3-carboxamide] | < 6.52 | < 6.52 | ≥ 7.00
COc1cc2nccc(Oc3ccc(NC(=O)c4c(C)nc(C)c(OC)c4O)cc3)c2nc1OC [Compound 61, N-[4-[(6,7-Dimethoxy-1,5-naphthyridin-4-yl)oxy]phenyl]-4-hydroxy-5-methoxy-2,6-dimethylpyridine-3-carboxamide] | < 6.52 | < 6.52 | ≥ 7.00
COc1cc2nccc(Oc3ccc(NC(=O)c4c(C)nc(C)c(OC)c4O)cc3F)c2nc1OC [Compound 62, N-[4-[(6,7-Dimethoxy-1,5-naphthyridin-4-yl)oxy]-3-fluorophenyl]-4-hydroxy-5-methoxy-2,6-dimethylpyridine-3-carboxamide] | ≥ 7.00 | < 6.52 | ≥ 7.00
CCc1c(Br)c(=O)c(C(=O)Nc2cc(F)c(Oc3ccnc4cc(OC)c(OC)nc34)cc2F)cn1C [Compound 63, 5-Bromo-N-[4-[(6,7-dimethoxy-1,5-naphthyridin-4-yl)oxy]-2,5-difluorophenyl]-6-ethyl-1-methyl-4-oxopyridine-3-carboxamide] | ≥ 7.00 | < 6.52 | < 6.52
CCc1c(Br)c(=O)c(C(=O)Nc2ccc(Oc3ccnc4cc(OCCOC)c(OC)nc34)cc2)cn1C [Compound 64, 5-Bromo-6-ethyl-N-[4-[[6-methoxy-7-(2-methoxyethoxy)-1,5-naphthyridin-4-yl]oxy]phenyl]-1-methyl-4-oxopyridine-3-carboxamide] | ≥ 7.00 | < 6.52 | < 6.52
COCCOc1cnc2c(Oc3ccc(NC(=O)c4c(C)n(C)c(C)c(C5=CCOCC5)c4=O)cc3F)ccnc2c1 [Compound 67, 5-(3,6-Dihydro-2H-pyran-4-yl)-N-[3-fluoro-4-[[7-(2-methoxyethoxy)-1,5-naphthyridin-4-yl]oxy]phenyl]-1,2,6-trimethyl-4-oxopyridine-3-carboxamide] | < 6.52 | < 6.52 | < 6.52
COc1cc2nccc(Oc3cc(F)c(NC(=O)c4c(C)nc(C)c(OC)c4O)cc3F)c2nc1OC [Compound 68, N-[4-[(6,7-dimethoxy-1,5-naphthyridin-4-yl)oxy]-2,5-difluorophenyl]-4-hydroxy-5-methoxy-2,6-dimethylpyridine-3-carboxamide] | < 6.52 | < 6.52 | ≥ 7.00
